Results published in US10611750B2, “Tetrahydroquinoline compositions as bet bromodomain inhibitors” (FORMA Therapeutics, Inc., priority 2013, dated 2020).

What was measured:
[1] = target: T1, BRD4 Bromodomain 1 (BRD4 BD1) (Homo sapiens, UniProt O60885); test: AlphaScreen binding assay, BRD4 BD1; conditions: His-tagged BRD4 BD1 50 nM, biotinylated H4 (1-21) K5/8/12/16 tetra-acetylated peptide 50 nM, compounds listed under IC50 range headings
T1 construct: 44-168 and BRD4 BD2
Outline: (§1)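 Compound dilution series were mixed with His-tagged BRD4 bromodomain and biotinylated tetra-acetylated H4 (1-21) peptide at pH 7.3 (BD1 and peptide at 50 nM, BD2 and peptide at 100 nM). Donor and acceptor beads were then added, and plates were equilibrated at least 1 h before reading. IC50 values were fitted with a four-parameter logistic model.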

[2] = target: T2, BRD4 Bromodomain 2 (BRD4 BD2) (Homo sapiens, UniProt O60885); test: AlphaScreen binding assay, BRD4 BD2; conditions: His-tagged BRD4 BD2 100 nM, biotinylated H4 (1-21) K5/8/12/16 tetra-acetylated peptide 100 nM, compounds listed under IC50 range headings
T2 construct: 333-460 were cloned, expressed, and purified to homogeneity
Outline: as §1

[3] = tested on: acute myelocytic leukemia (AML) cell line MV4-11; test: Oncology cell growth assay (3-day proliferation, CellTiter-Glo); format: cell-based; conditions: Homo sapiens, MV4-11, 72 h, MV4-11 cells, 3000 cells/well, compounds listed under IC50 range headings, read-out: MV411 IC50 (gIC50, inhibition of proliferation)
Outline: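 Compounds were serially diluted 3-fold in DMSO, giving final well concentrations from 10 down to 0.0045 μM. MV4-11 cells were then seeded at 3000 cells/well in RPMI 1640 with 10% FBS and incubated 72 hours. CellTiter-Glo signal was measured and gIC50 obtained by four-parameter logistic regression.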

Structure (SMILES)	IC50 [1] [nM]	IC50 [2] [nM]	IC50 [3] [nM]
COC(=O)N1c2ccc(-c3cnn(C4CS(=O)(=O)C4)c3)c(OC3CCC3)c2CC[C@@H]1C [I-61, Methyl (S)-5-cyclobutoxy-6-(1-(1,1-dioxidothietan-3-yl)-1H-pyrazol-4-yl)-2-methyl-3,4-dihydroquinoline-1(2H)-carboxylate]	100 to 1000	50 to 500	< 500
COC(=O)N1c2ccc(-c3cnn(C4CCNCC4)c3)c(Oc3ccc(C(N)=O)cc3)c2CC[C@@H]1C [I-161, (S)-methyl 5-(4-carbamoylphenoxy)-2-methyl-6-(1-(piperidin-4-yl)-1H-pyrazol-4-yl)-3,4-dihydroquinoline-1(2H)-carboxylate]	100 to 1000	< 50	> 1000
COC(=O)N1c2ccc(-c3cnn([C@H]4CCNC[C@@H]4F)c3)c(Oc3ccc(F)cc3)c2CC[C@@H]1C [I-364, methyl (2S)-5-(4-fluorophenoxy)-6-{1-[(3S,4S)-3-fluoropiperidin-4-yl]-1H-pyrazol-4-yl}-2-methyl-1,2,3,4-tetrahydroquinoline-1-carboxylate]	100 to 1000	< 50	< 500
COC(=O)N1c2ccc(-c3cnn(C4CCNCC4)c3)c(Oc3ncccn3)c2CC[C@@H]1C [I-525]	1000 to 10000	50 to 500	< 500
COC(=O)N1c2ccc(-c3cnn(CCO)c3)c(OCC3CCCC3)c2CC[C@@H]1C [I-461]	100 to 1000	< 50	500 to 1000
CC(=O)N1c2ccc(-c3cnn(C4CCNCC4)c3)c(OCC3CCOCC3)c2CC[C@@H]1C [I-416]	< 100	< 50	< 500
CCCOc1c(-c2cnn(CC(C)(C)O)c2)ccc2c1CC[C@H](C)N2C(C)=O [I-408]	100 to 1000	< 50	< 500
COC(=O)N1c2ccc(-c3cnn(C4CCNCC4)c3)c(Oc3ncccc3C(F)(F)F)c2CC[C@@H]1C [I-527]	1000 to 10000	50 to 500	< 500
CCCOc1c(C2CCNCC2)ccc2c1CC[C@H](C)N2C(C)=O [I-353, (S)-1-(2-methyl-6-(piperidin-4-yl)-5-propoxy-3,4-dihydroquinolin-1(2H)-yl)ethan-1-one]	≥ 10000	≥ 500	> 1000
CC(=O)N1c2ccc(-c3cnn(C4CC4)c3)c(OCC(F)(F)F)c2CC[C@@H]1C [I-35, (S)-1-(6-(1-cyclopropyl-1H-pyrazol-4-yl)-2-methyl-5-(2,2,2-trifluoroethoxy)-3,4-dihydroquinolin-1(2H)-yl)ethanone]	1000 to 10000	50 to 500	500 to 1000
CC(=O)N1c2ccc(-c3cnn(C(C)(C)CO)c3)c(Oc3ncc(F)cn3)c2CC[C@@H]1C [I-552]	100 to 1000	< 50	< 500
COC(=O)N1c2ccc(-c3cnn(C4CNC4)c3)c(Oc3cccc(F)c3F)c2CC[C@@H]1C [I-270, (S)-methyl 6-(1-(azetidin-3-yl)-1H-pyrazol-4-yl)-5-(2,3-difluorophenoxy)-2-methyl-3,4-dihydroquinoline-1(2H)-carboxylate]	100 to 1000	< 50	< 500
COC(=O)N1c2ccc(-c3cnn(CCO)c3)c(Oc3ncccc3C#N)c2CC[C@@H]1C [I-568]	1000 to 10000	50 to 500	< 500
CC(=O)N1c2ccc(-c3cnn(C4CC4)c3)c(OCCNS(C)(=O)=O)c2CC[C@@H]1C [I-382]	100 to 1000	50 to 500	500 to 1000
COC(=O)N1c2ccc(-c3cnn(C4CCNCC4)c3)c(Oc3ccc(F)cc3F)c2CC[C@@H]1C [I-263, (S)-methyl 5-(2,4-difluorophenoxy)-2-methyl-6-(1-(piperidin-4-yl)-1H-pyrazol-4-yl)-3,4-dihydroquinoline-1(2H)-carboxylate]	100 to 1000	< 50	< 500
CC(=O)N1c2ccc(-c3ccc(N4CCCS4(=O)=O)cc3)c(Oc3ncc(F)cn3)c2CC[C@@H]1C [I-553]	100 to 1000	< 50	< 500
COC(=O)N1c2ccc(-c3cnn(CCS(C)(=O)=O)c3)c(Oc3ncc(C(F)(F)F)cn3)c2CC[C@@H]1C [I-578]	1000 to 10000	50 to 500	> 1000
CC(=O)N1c2ccc(-c3cnn(C4CC4)c3)c(Oc3ncccc3C(F)(F)F)c2CC[C@@H]1C [I-86, (S)-1-(6-(1-cyclopropyl-1H-pyrazol-4-yl)-2-methyl-5-(3-(trifluoromethyl)pyridin-2-yloxy)-3,4-dihydroquinolin-1 (2H)-yl)ethanone]	100 to 1000	< 50	< 500
CC(=O)N1c2ccc(-c3cnn(C4CC4)c3)c(Oc3ncccc3C(N)=O)c2CC[C@@H]1C [I-81, (S)-2-(1-acetyl-6-(1-cyclopropyl-1H-pyrazol-4-yl)-2-methyl-1,2,3,4-tetrahydroquinolin-5-yloxy)nicotinamide]	100 to 1000	50 to 500	< 500
COC(=O)N1c2ccc(-c3cnn(C4CC4)c3)c(OCC(=O)N(C)C3CC3)c2CC[C@@H]1C [I-22, (S)-methyl 5-(2-(cyclopropyl(methyl)amino)-2-oxoethoxy)-6-(1-cyclopropyl-1H-pyrazol-4-yl)-2-methyl-3,4-dihydroquinoline-1(2H)-carboxylate]	100 to 1000	< 50	< 500
COC(=O)N1c2ccc(-c3cnn(C4CCNCC4)c3)c(Oc3ncc(C(F)(F)F)cn3)c2CC[C@@H]1C [I-534]	1000 to 10000	50 to 500	500 to 1000
COC(=O)N1c2ccc(-c3cnn(C4CC4)c3)c(Oc3ncc(C(F)(F)F)cc3F)c2CC[C@@H]1C [I-591]	1000 to 10000	50 to 500	500 to 1000
CC(=O)N1c2ccc(-c3cnn(C4CCNCC4)c3)c(Oc3ccccc3Cl)c2CC[C@@H]1C [I-157, (S)-1-(5-(2-chlorophenoxy)-2-methyl-6-(1-(piperidin-4-yl)-1H-pyrazol-4-yl)-3,4-dihydroquinolin-1(2H)-yl)ethanone]	100 to 1000	< 50	< 500
COC(=O)N1c2ccc(-c3cnn(C4CC4)c3)c(Oc3ccc(F)cc3)c2CC[C@@H]1C [I-212, (S)-methyl 6-(1-cyclopropyl-1H-pyrazol-4-yl)-5-(4-fluorophenoxy)-2-methyl-3,4-dihydroquinoline-1(2H)-carboxylate]	1000 to 10000	50 to 500	< 500
CC(=O)N1c2ccc(-c3cnn(C4CC4)c3)c(Oc3ccc(F)cc3)c2CC[C@@H]1C [I-225, (S)-1-(6-(1-cyclopropyl-1H-pyrazol-4-yl)-5-(4-fluorophenoxy)-2-methyl-3,4-dihydroquinolin-1(2H)-yl)ethanone]	100 to 1000	< 50	< 500
COC(=O)N1c2ccc(-c3cnn(C4CN(C)C4)c3)c(OC3CCC3)c2CC[C@@H]1C [I-284, Methyl (S)-5-cyclobutoxy-2-methyl-6-(1-(1-methylazetidin-3-yl)-1H-pyrazol-4-yl)-3,4-dihydroquinoline-1(2H)-carboxylate]	1000 to 10000	50 to 500	500 to 1000
